Laboratory results reported in patent publication US20080009517A1, “Use of nelfinavir as a radiation sensitizer” (The Trustees of the University of Pennsylvania, priority 2005, published 2008).
Entries after “also recorded” stand apart in the source; their conditions may differ.

Legend:
T24 = experiment: Clonogenic assay, radiation sensitization, T24 cells; type: cell-based; conditions: T24, 2 Gy, nelfinavir added at least one hour prior to irradiation; mean +/- spread
Procedure: (§1) Cultures of cells in log growth phase were counted and plated in 60-mm dishes containing 4 ml of media. The cells were allowed to attach and nelfinavir was added to cultures at least one hour prior to irradiation. Cells were irradiated with a Mark I cesium irradiator (J. L. Shepherd, San Fernando, Calif.) at a dose rate of 1.6 Gy/min. Colonies were stained and counted 10-14 days after irradiation. A light box was used to assist in counting colonies. The surviving fraction was calculated by dividing the number of colonies formed by the number of cells plated times plating efficiency (Table 1). Each point value represents the mean surviving fraction from at least six replicate dishes.

Akt phosphorylation = experiment: Western blot of Akt phosphorylation in white blood cells of HIV patients; type: in vivo, human; conditions: HIV patients taking nelfinavir vs. HIV patients not actively using nelfinavir
From the text: As a proof of principle, it was examined whether there was down-regulation of Akt in HIV patients who are being actively treated with HPIs. Blood samples were obtained from HIV patients on courses of various combinations of drugs. WBCs were isolated and stained for Akt using a Western Blot. Patients taking nelfinavir had decreased Akt phosphorylation compared to the levels of Akt phosphorylation detected in HIV patients who were not actively using nelfinavir (FIG. 7).

REF = experiment: Clonogenic assay, radiation sensitization, REF cells; type: cell-based; conditions: 2 Gy, nelfinavir added at least one hour prior to irradiation, mean +/- spread
Procedure: as §1

SQ2OB xenograft tumors = experiment: In vivo to in vitro clonogenic assay in nude mice with SQ2OB tumors
Procedure: In an in vivo experiment to examine the nelfinavir-mediated radiation sensitization of tumors, tumors in animals were radiation-sensitized using nelfinavir. FIG. 5 illustrates the results of an in vivo to in vitro clonogenic assay in nude mice with SQ2OB tumors. Mice were treated with 8 Gy radiation, with and without nelfinavir at 0.6 mg/day. […] FIG. 6 illustrates the results of in vivo to in vitro clonogenic assays used to examine in vivo sensitization of tumor cells to drugs. Nelfinavir was delivered to mice at 0.6 mg/day via osmotic pump. The mice had SQ2OB xenograft tumors on hind leg. The pump was placed in mouse 2 days prior to experiment. On the day of experiment, the mouse was anesthetized and irradiated to 8 Gy. The tumor was then harvested and a cell suspension made. The cells were plated and the plating efficiency determined. The result indicted the number of cells that were viable and able to reproduce by forming colonies in each individual group (plating efficiency).

SQ20B = experiment: Clonogenic assay, radiation sensitization, SQ20B cells; type: cell-based, human; conditions: SQ2OB cells, 5 μM nelfinavir + 2 Gy radiation; control 70%
Procedure: as §1

A549 = experiment: Clonogenic assay, radiation sensitization, A549 cells; type: cell-based; conditions: A549, 2 Gy, nelfinavir added at least one hour prior to irradiation; mean +/- spread
Procedure: as §1

[1] = tested on: Akt phosphorylation at Ser 473; experiment: Western blot analysis of Akt phosphorylation in SQ2OB cells; type: cell-based, human
From the text: Using Western blot analysis, a human head-and-neck cancer cell line, SQ2OB, containing a constitutively-active EGFR receptor and thus, increased signaling through PI3K, was examined for Akt phosphorylation.

MIAPACA2 = experiment: Clonogenic assay, radiation sensitization, MIAPACA2 cells; type: cell-based; conditions: MIAPACA2, 2 Gy, nelfinavir added at least one hour prior to irradiation; mean +/- spread
Procedure: as §1

[2] = tested on: non-small cell lung carcinoma; conditions: randomized phase II trial; cited from earlier work

Compound | nelfinavir SF2 (T24) | Akt phosphorylation in white blood cells (Akt phosphorylation) | nelfinavir SF2 (REF) | plating efficiency of tumor cells derived from the mice (SQ2OB xenograft tumors; nelfinavir 0.6 mg/day + 8 Gy radiation) | plating efficiency of tumor cells derived from the mice (SQ2OB xenograft tumors; nelfinavir alone 0.6 mg/day, no radiation) | surviving fraction after 2 Gy (SF2) (SQ20B) [%] | nelfinavir SF2 (A549) | Akt phosphorylation at Ser 473 ([1]; 5 μM nelfinavir) | Akt phosphorylation at Ser 473 ([1]; 10 μM nelfinavir) | nelfinavir SF2 (MIAPACA2) | radiographic response rate [2] [%]
Cc1c(O)cccc1C(=O)N[C@@H](CSc1ccccc1)[C@H](O)CN1C[C@H]2CCCC[C@H]2C[C@H]1C(=O)NC(C)(C)C [nelfinavir] | 0.452 +/− 0.023 | decreased | 0.397 +/− 0.054 | synergistically decreased; also recorded: significant increase in cell kill | did not result in a change; also recorded: no toxicity | 40 | 0.410 +/− 0.062 | down-regulation | abolished | 0.526 +/− 0.040 | 
COc1cc2ncnc(Nc3ccc(F)c(Cl)c3)c2cc1OCCCN1CCOCC1 [Iressa, gefitinib] |  |  |  |  |  |  |  |  |  |  | ~10
